Experiment [1] can be described thus: Relative binding affinity to estrogen receptor relative to estradiol.
Experiment [2] concerns the target T1, Estrogen receptor (Homo sapiens) (UniProt P03372).
T1 sequence (whole entry): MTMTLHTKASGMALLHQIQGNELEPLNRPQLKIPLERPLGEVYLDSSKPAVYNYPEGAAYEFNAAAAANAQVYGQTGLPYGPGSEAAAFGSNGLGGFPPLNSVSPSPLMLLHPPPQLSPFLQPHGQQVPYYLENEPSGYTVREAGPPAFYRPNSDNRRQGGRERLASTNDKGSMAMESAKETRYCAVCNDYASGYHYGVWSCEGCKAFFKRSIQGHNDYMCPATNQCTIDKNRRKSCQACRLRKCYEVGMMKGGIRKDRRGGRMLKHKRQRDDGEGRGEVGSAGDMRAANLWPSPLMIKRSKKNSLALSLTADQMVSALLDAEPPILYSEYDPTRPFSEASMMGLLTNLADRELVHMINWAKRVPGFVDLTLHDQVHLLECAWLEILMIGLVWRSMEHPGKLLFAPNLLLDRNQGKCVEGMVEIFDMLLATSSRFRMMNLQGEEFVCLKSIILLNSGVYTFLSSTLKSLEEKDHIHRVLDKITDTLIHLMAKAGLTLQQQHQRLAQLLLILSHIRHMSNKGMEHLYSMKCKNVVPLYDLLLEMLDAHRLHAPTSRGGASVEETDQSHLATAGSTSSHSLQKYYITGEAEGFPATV
Description: Ratio of estradiol IC50 to compound IC50 for ERalpha receptor by relative binding affinity assay.

Experiment [3] deals with Estrogen receptor beta (Homo sapiens) (UniProt Q92731). Description: Ratio of estradiol IC50 to compound IC50 for ERbeta receptor by relative binding affinity assay.
Chain of Estrogen receptor beta (Homo sapiens) (Q92731 whole entry): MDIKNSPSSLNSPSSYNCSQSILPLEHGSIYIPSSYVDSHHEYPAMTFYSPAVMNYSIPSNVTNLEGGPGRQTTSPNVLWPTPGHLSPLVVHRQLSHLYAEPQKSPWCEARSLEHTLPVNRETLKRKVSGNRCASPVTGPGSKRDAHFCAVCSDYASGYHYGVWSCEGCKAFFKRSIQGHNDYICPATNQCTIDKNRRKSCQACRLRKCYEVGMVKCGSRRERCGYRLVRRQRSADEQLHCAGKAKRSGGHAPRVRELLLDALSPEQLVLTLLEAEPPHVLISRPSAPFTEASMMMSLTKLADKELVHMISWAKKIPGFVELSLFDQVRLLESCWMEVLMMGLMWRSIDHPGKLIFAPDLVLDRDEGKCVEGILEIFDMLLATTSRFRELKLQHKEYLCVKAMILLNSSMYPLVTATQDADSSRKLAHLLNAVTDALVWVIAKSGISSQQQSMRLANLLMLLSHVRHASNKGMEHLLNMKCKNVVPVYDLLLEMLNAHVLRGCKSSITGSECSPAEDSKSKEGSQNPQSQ

Structures are written as SMILES.

`CCc1c(-c2ccc(O)cc2)nc(-c2ccccc2)n1-c1ccc(O)cc1`: the RBA in experiment [1] came out at 0.37%. For `Cc1cc(C)c(B(c2c(C)cc(C)cc2C)N(C)c2ccc(O)cc2)c(C)c1`, the results for the Ratio IC50 in experiment [2] and in experiment [3] were 1.3 and 3.1, respectively.

Consider `Cc1cccc(C)c1B(c1c(C)cccc1C)N(C)c1ccc(O)cc1`, for which the Ratio IC50 in experiment [2] was 23; in experiment [3] it was 16.

For the compound `CCc1c(-c2ccc(O)cc2)n[nH]c1-c1ccc(O)cc1`, in experiment [1], the RBA was 0.02%.

Compound `CCn1c(-c2ccc(O)cc2)nc(-c2ccccc2)c1-c1ccc(O)cc1` displayed an RBA in experiment [1] of 0.25%. Take `CCCCCN(B(c1c(C)cc(C)cc1C)c1c(C)cc(C)cc1C)c1ccc(O)cc1`: the Ratio IC50 was 0.16 in experiment [2] and 0.12 in experiment [3]. As to `Cc1cc(C)c(B(c2c(C)cc(C)cc2C)N(CC(F)(F)F)c2ccc(O)cc2)c(C)c1`, the Ratio IC50 was found to be 2.2 in experiment [2] and 1.3 in experiment [3]. Consider `Oc1ccc(-c2cc(-c3ccc(O)cc3)n(-c3ccccc3)n2)cc1`, for which the RBA in experiment [1] was found to be 0.03%.

In experiment [1], `CCn1c(-c2ccc(O)cc2)nc(-c2ccc(O)cc2)c1-c1ccc(O)cc1` registered an RBA of 0.38%.

Turning to `Cc1cc(C)c(B(Nc2ccc(O)cc2)c2c(C)cc(C)cc2C)c(C)c1`, the Ratio IC50 was 0.013 in experiment [2] and 0.18 in experiment [3]. On to `CCN(B(c1c(C)cc(C)cc1C)c1c(C)cc(C)cc1C)c1ccc(O)cc1`, for which the Ratio IC50 in experiment [2] was 1.3; in experiment [3] it was 1.1. `CCc1c(-c2ccc(O)cc2)nn(-c2ccccc2)c1-c1ccc(O)cc1`: the RBA in experiment [1] worked out at 14%. On the same count and under the same terms, the figure for `Oc1ccc(-c2cc(-c3ccc(O)cc3)[nH]n2)cc1` is 0.009%.

For `CCc1c(-c2ccc(O)cc2)nn(-c2ccc(O)cc2)c1-c1ccc(O)cc1`, the RBA in experiment [1] amounted to 19%. Take `Cc1cccc(C)c1B(c1c(C)cccc1C)N(CC(F)(F)F)c1ccc(O)cc1`: the Ratio IC50 in experiment [2] turned out to be 10; in experiment [3], 5.8.
